Reference: publication PMC6519835, “A family AA5_2 carbohydrate oxidase from Penicillium rubens displays functional overlap across the AA5 family” (PLoS ONE, 2019)

Columns and labels:
[1] = biological target: T1, FgrGaOx (galactose oxidase) (Fusarium graminearum, UniProt P0CS93); assay type: biochemical
T1 construct: gene GAOA

PruAA5_2A [2] = biological target: T2, PruAA5_2A (Penicillium rubens, UniProt B6HHT0); test: purified enzyme specific activity and kinetics (HRP/ABTS assay); assay type: biochemical
T2 construct: gene Pc21g18600; recombinant from P. pastoris
T2 sequence (B6HHT0 22-657): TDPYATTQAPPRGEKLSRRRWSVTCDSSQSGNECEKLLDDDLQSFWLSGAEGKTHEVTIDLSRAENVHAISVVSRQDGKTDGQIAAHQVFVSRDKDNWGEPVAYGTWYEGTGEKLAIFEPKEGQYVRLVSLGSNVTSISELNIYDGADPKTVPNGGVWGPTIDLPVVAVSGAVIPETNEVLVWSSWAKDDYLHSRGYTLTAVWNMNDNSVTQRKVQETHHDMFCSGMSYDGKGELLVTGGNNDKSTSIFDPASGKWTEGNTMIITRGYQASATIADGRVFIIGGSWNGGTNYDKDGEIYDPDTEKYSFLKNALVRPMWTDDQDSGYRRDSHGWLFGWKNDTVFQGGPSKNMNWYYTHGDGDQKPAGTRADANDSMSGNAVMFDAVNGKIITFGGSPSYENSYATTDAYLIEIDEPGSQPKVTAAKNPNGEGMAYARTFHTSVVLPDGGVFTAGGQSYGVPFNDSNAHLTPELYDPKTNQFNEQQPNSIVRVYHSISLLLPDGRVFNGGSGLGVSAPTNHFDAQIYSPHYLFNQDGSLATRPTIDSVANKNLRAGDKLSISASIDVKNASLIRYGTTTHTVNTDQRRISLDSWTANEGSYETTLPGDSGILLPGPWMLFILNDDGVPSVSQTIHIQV

PruAA5_2A [3] = biological target: T2, PruAA5_2A; test: purified enzyme specific activity at […] (HRP/ABTS assay); assay type: biochemical
PruAA5_2A [4] = biological target: T2, PruAA5_2A; test: purified enzyme kinetics (HRP/ABTS assay) and MS of the C-6 oxidized product; […] U/mg at […]; assay type: biochemical
[5] = biological target: T1, FgrGaOx (galactose oxidase); assay type: biochemical; remark: listed apart in the source
purified protein = substrate: OC1COC(O)CO1; test: purified protein; assay type: biochemical, Penicillium rubens; settings: copper; Tyr-Cys radical cofactor

T1 sequence (P0CS93 42-680 limits assumed): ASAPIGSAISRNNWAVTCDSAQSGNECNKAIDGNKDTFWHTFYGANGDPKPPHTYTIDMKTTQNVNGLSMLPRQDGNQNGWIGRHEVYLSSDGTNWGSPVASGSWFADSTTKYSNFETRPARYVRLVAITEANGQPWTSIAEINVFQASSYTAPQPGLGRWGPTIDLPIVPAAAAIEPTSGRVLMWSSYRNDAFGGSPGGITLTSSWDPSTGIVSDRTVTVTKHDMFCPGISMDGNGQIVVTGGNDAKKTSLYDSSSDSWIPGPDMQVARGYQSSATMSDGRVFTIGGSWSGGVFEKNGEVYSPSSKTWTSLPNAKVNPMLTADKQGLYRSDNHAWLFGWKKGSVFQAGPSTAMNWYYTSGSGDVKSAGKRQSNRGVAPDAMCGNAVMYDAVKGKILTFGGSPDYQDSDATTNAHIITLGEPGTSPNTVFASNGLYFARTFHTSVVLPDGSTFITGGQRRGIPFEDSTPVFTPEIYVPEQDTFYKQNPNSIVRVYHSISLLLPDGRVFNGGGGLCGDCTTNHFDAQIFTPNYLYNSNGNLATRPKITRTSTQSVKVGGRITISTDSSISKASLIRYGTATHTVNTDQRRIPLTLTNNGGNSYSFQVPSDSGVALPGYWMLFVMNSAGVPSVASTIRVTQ

Molecule: OC[C@H]1OC(O)[C@H](O)[C@@H](O)[C@H]1O (stereo partly shown) [galactose]
- purified enzyme kinetics (HRP/ABTS assay), kcat/KM 20 s^-1*mM^-1 [1]: 20000 M⁻¹ s⁻¹

Molecule: OCC(O)CO [glycerol]
- purified enzyme specific activity and kinetics (HRP/ABTS assay) (PruAA5_2A [2]): 22.5 U/mg

Molecule: OC[C@H]1O[C@H](OC[C@H]2OC(O)[C@H](O)[C@@H](O)[C@@H]2O)[C@H](O)[C@@H](O)[C@H]1O (stereo partly shown) [melibiose]
- purified enzyme specific activity at 300 mM (HRP/ABTS assay) (PruAA5_2A [3]): 17.5 U/mg

Molecule: OC[C@H]1O[C@H](OC[C@H]2O[C@H](O[C@]3(CO)O[C@H](CO)[C@@H](O)[C@@H]3O)[C@H](O)[C@@H](O)[C@@H]2O)[C@H](O)[C@@H](O)[C@H]1O [raffinose]
- purified enzyme kinetics (HRP/ABTS assay) and MS of the C-6 oxidized product; 31 (PruAA5_2A [4]): 31.4 U/mg
- purified enzyme kinetics (HRP/ABTS assay), kcat/KM 30 s^-1*mM^-1 [5]: 30000 M⁻¹ s⁻¹

Molecule: OC[C@H]1O[C@H](OC[C@H]2O[C@H](OC[C@H]3O[C@H](O[C@]4(CO)O[C@H](CO)[C@@H](O)[C@@H]4O)[C@H](O)[C@@H](O)[C@@H]3O)[C@H](O)[C@@H](O)[C@H]2O)[C@H](O)[C@@H](O)[C@H]1O [stachyose]
- purified enzyme specific activity at 300 mM (HRP/ABTS assay) (PruAA5_2A [3]): 9.4 U/mg

B1: PruAA5_2A (Penicillium rubens Wisconsin 54-1255) (protein)
chain: T2 sequence (B6HHT0 22-657)
notes: recombinant from P. pastoris
- Km (purified protein): 53 mM
